Measurements reported in PubChem BioAssay (NCI).
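Following 48 hours of exposure in 96-well plates, responses at five concentrations were used to interpolate endpoints linearly. TGI marks complete inhibition of growth.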

Experiments:
Assay in all cases: NCI-60 cell line screen, 48 h
[1] = test system: A549 NSCLC
[2] = test system: CCRF-CEM leukemia
[3] = test system: DU-145 prostate
[4] = test system: HCT-15 colon
[5] = test system: HOP-92 NSCLC
[6] = test system: IGROV1 ovarian
[7] = test system: K-562 leukemia
[8] = test system: MCF7 breast
[9] = test system: MDA-N
[10] = test system: NCI-H23 lung
[11] = test system: OVCAR-4 ovarian
[12] = test system: SF-539 CNS
[13] = test system: SK-OV-3 ovarian
[14] = test system: SW-620 colon
[15] = test system: TK-10 renal
[16] = test system: U251 CNS
[17] = test system: UACC-257 melanoma
[18] = test system: UACC-62 melanoma
[19] = test system: A498 renal
[20] = test system: SK-MEL-2 melanoma

## SCc1ccc(CS)s1
[1]
  TGI: > 100 µM
[2]
  TGI: > 100 µM
[3]
  TGI: > 100 µM
[4]
  TGI: > 100 µM
[5]
  TGI: > 100 µM
[6]
  TGI: > 100 µM
[7]
  TGI: > 100 µM
[8]
  TGI: > 100 µM
[9]
  TGI: > 100 µM
[10]
  TGI: > 100 µM
[11]
  TGI: > 100 µM
[12]
  TGI: > 100 µM
[13]
  TGI: > 100 µM
[14]
  TGI: > 100 µM
[15]
  TGI: > 100 µM
[16]
  TGI: > 100 µM
[17]
  TGI: > 100 µM
[18]
  TGI: > 100 µM

## O=C(CN1CCOCC1)c1ccc2c(c1)oc(=O)n2CCN1CCCC1
[19]
  TGI: > 100 µM
[2]
  TGI: > 100 µM
[3]
  TGI: > 100 µM
[4]
  TGI: > 100 µM
[6]
  TGI: > 100 µM
[7]
  TGI: > 100 µM
[8]
  TGI: > 100 µM
[9]
  TGI: > 100 µM
[10]
  TGI: > 100 µM
[12]
  TGI: > 100 µM
[20]
  TGI: > 100 µM
[13]
  TGI: > 100 µM
[14]
  TGI: > 100 µM
[15]
  TGI: > 100 µM
[16]
  TGI: > 100 µM
[17]
  TGI: > 100 µM
[18]
  TGI: > 100 µM

## COc1ccc(/C=C/C(=O)CC(=O)/C=C/c2ccc(OC)cc2)cc1
[1]
  TGI: > 100 µM
[2]
  TGI: 54.9 µM
[3]
  TGI: > 100 µM
[4]
  TGI: > 100 µM
[6]
  TGI: > 100 µM
[7]
  TGI: > 100 µM
[8]
  TGI: > 100 µM
[9]
  TGI: > 100 µM
[10]
  TGI: 95.1 µM
[12]
  TGI: 78.7 µM
[20]
  TGI: > 100 µM
[13]
  TGI: > 100 µM
[14]
  TGI: > 100 µM
[16]
  TGI: > 100 µM
[17]
  TGI: > 100 µM
[18]
  TGI: > 100 µM

## CCN(CC)CCCNc1nc(=O)[nH]c(C)c1C(=O)Nc1ccc2c(c1)c1ccccc1n2CC
[1]
  TGI: > 100 µM
[2]
  TGI: > 100 µM
[3]
  TGI: > 100 µM
[4]
  TGI: > 100 µM
[5]
  TGI: > 100 µM
[6]
  TGI: > 100 µM
[7]
  TGI: > 100 µM
[8]
  TGI: > 100 µM
[9]
  TGI: > 100 µM
[10]
  TGI: > 100 µM
[11]
  TGI: > 100 µM
[12]
  TGI: > 100 µM
[20]
  TGI: > 100 µM
[13]
  TGI: > 100 µM
[14]
  TGI: > 100 µM
[15]
  TGI: > 100 µM
[16]
  TGI: > 100 µM
[17]
  TGI: > 100 µM
[18]
  TGI: > 100 µM

## Cc1sc(C)c2c1C(=O)CC2N (centres undefined)
[19]
  TGI: > 100 µM
[1]
  TGI: > 100 µM
[2]
  TGI: 6.68 µM
[3]
  TGI: 30.3 µM
[4]
  TGI: > 58.3 µM
[5]
  TGI: 40.7 µM
[6]
  TGI: > 69 µM
[7]
  TGI: > 56.1 µM
[9]
  TGI: > 57.4 µM
[10]
  TGI: > 96.2 µM
[11]
  TGI: > 75.6 µM
[12]
  TGI: 14.2 µM
[20]
  TGI: > 100 µM
[13]
  TGI: > 100 µM
[14]
  TGI: 26.3 µM
[15]
  TGI: 33.5 µM
[16]
  TGI: > 100 µM
[17]
  TGI: 33.3 µM
[18]
  TGI: > 100 µM

## COC(=O)c1ccccc1/C=C1\Cc2c(C)cc(C)cc2C1=O
[19]
  TGI: > 100 µM
[1]
  TGI: > 100 µM
[2]
  TGI: > 100 µM
[4]
  TGI: > 100 µM
[5]
  TGI: > 100 µM
[6]
  TGI: > 100 µM
[7]
  TGI: > 100 µM
[8]
  TGI: > 100 µM
[9]
  TGI: > 100 µM
[11]
  TGI: > 100 µM
[12]
  TGI: > 100 µM
[20]
  TGI: > 100 µM
[14]
  TGI: > 100 µM
[15]
  TGI: > 100 µM
[16]
  TGI: > 100 µM
[17]
  TGI: > 100 µM
[18]
  TGI: > 100 µM

## Fc1cccc(Cl)c1C1SCc2nc3cc4ccccc4cc3n21 (centres undefined)
[1]
  TGI: > 100 µM
[2]
  TGI: > 100 µM
[3]
  TGI: > 100 µM
[4]
  TGI: > 100 µM
[5]
  TGI: 72.3 µM
[6]
  TGI: > 100 µM
[7]
  TGI: > 100 µM
[8]
  TGI: > 100 µM
[9]
  TGI: > 100 µM
[10]
  TGI: > 100 µM
[11]
  TGI: > 100 µM
[12]
  TGI: > 100 µM
[20]
  TGI: > 100 µM
[13]
  TGI: > 100 µM
[14]
  TGI: > 100 µM
[15]
  TGI: > 100 µM
[16]
  TGI: > 100 µM
[17]
  TGI: > 100 µM
[18]
  TGI: > 100 µM

## O=c1[nH]nc(Cn2c3ccc(Br)cc3c3nc4ccccc4nc32)n1C1CCCCC1
[19]
  TGI: 57.4 µM
[1]
  TGI: > 100 µM
[3]
  TGI: > 100 µM
[4]
  TGI: > 100 µM
[5]
  TGI: 63.3 µM
[6]
  TGI: > 100 µM
[7]
  TGI: > 100 µM
[8]
  TGI: > 100 µM
[9]
  TGI: > 100 µM
[10]
  TGI: 40.9 µM
[11]
  TGI: > 100 µM
[12]
  TGI: 46 µM
[20]
  TGI: > 100 µM
[13]
  TGI: > 100 µM
[14]
  TGI: > 100 µM
[15]
  TGI: > 100 µM
[16]
  TGI: > 100 µM
[17]
  TGI: > 100 µM
[18]
  TGI: 81.1 µM

## C=C(C)C(O)C(O)C[C@@H](C)C1CC[C@]23C[C@]12CCC1[C@@]2(C)CCC(OC(C)=O)C(C)(C)C2CC(OC2OC(CO)C(O)C(O)C2O)[C@]13C (some centres undefined)
[1]
  TGI: > 100 µM
[2]
  TGI: 31.2 µM
[3]
  TGI: 43.3 µM
[4]
  TGI: > 100 µM
[5]
  TGI: 25.7 µM
[6]
  TGI: 28.8 µM
[7]
  TGI: 46.6 µM
[8]
  TGI: 31 µM
[9]
  TGI: 31.1 µM
[10]
  TGI: 41.6 µM
[11]
  TGI: 41.8 µM
[12]
  TGI: 27.8 µM
[20]
  TGI: 30.6 µM
[13]
  TGI: 45.7 µM
[14]
  TGI: 30.8 µM
[15]
  TGI: 56.2 µM
[16]
  TGI: 29.1 µM
[17]
  TGI: 31.4 µM
[18]
  TGI: 31.8 µM

## CN(C)S(=O)(=O)n1cnc(CO)c1
[19]
  TGI: > 100 µM
[1]
  TGI: > 100 µM
[4]
  TGI: > 100 µM
[5]
  TGI: > 100 µM
[6]
  TGI: > 100 µM
[7]
  TGI: > 100 µM
[8]
  TGI: > 100 µM
[9]
  TGI: > 100 µM
[10]
  TGI: > 100 µM
[11]
  TGI: > 100 µM
[12]
  TGI: > 100 µM
[20]
  TGI: > 100 µM
[13]
  TGI: > 100 µM
[14]
  TGI: > 100 µM
[15]
  TGI: > 100 µM
[16]
  TGI: > 100 µM
[17]
  TGI: > 100 µM

## CCN(CC)c1ccc2cc(-c3nnc(-c4ccccc4O)o3)c(=O)oc2c1
[19]
  TGI: 29.6 µM
[1]
  TGI: 29.1 µM
[2]
  TGI: 8.63 µM
[3]
  TGI: 23.6 µM
[4]
  TGI: 29.4 µM
[6]
  TGI: 13.9 µM
[7]
  TGI: > 100 µM
[8]
  TGI: > 100 µM
[9]
  TGI: 30.7 µM
[10]
  TGI: 24.8 µM
[11]
  TGI: 27.5 µM
[12]
  TGI: 22.4 µM
[20]
  TGI: 30.2 µM
[13]
  TGI: > 100 µM
[14]
  TGI: 26.9 µM
[16]
  TGI: 21 µM
[17]
  TGI: 35.1 µM
[18]
  TGI: 23.4 µM

## COc1cc([C@@]23OC[C@@H]4[C@@H](OC[C@@H]42)c2cc4c(cc23)OCO4)cc(OC)c1OC
[19]
  TGI: 15.1 µM
[1]
  TGI: > 100 µM
[2]
  TGI: > 100 µM
[3]
  TGI: > 100 µM
[4]
  TGI: > 100 µM
[6]
  TGI: > 100 µM
[7]
  TGI: > 100 µM
[8]
  TGI: > 100 µM
[9]
  TGI: > 100 µM
[10]
  TGI: > 100 µM
[11]
  TGI: > 100 µM
[12]
  TGI: > 47.1 µM
[20]
  TGI: 62.8 µM
[14]
  TGI: > 100 µM
[15]
  TGI: > 100 µM
[16]
  TGI: > 74.5 µM
[17]
  TGI: > 100 µM
[18]
  TGI: > 100 µM

## NC(Cc1ccc(S(=O)(=O)O)cc1)C(=O)NC(Cc1ccc(S(=O)(=O)O)cc1)C(=O)NC(Cc1ccc(S(=O)(=O)O)cc1)C(=O)O (centres undefined)
[19]
  TGI: > 100 µM
[1]
  TGI: > 100 µM
[2]
  TGI: > 100 µM
[3]
  TGI: > 100 µM
[4]
  TGI: > 100 µM
[6]
  TGI: > 100 µM
[7]
  TGI: > 100 µM
[8]
  TGI: > 100 µM
[9]
  TGI: > 100 µM
[10]
  TGI: > 100 µM
[11]
  TGI: > 100 µM
[12]
  TGI: > 100 µM
[20]
  TGI: > 100 µM
[14]
  TGI: > 100 µM
[15]
  TGI: > 100 µM
[16]
  TGI: > 100 µM
[17]
  TGI: > 100 µM
[18]
  TGI: > 100 µM
